Where a name gives a salt, the structure may show the parent alone.
The compounds below were run against T1, β-lactamase (Citrobacter freundii, UniProt P05193) (assay: biochemical). Details: not given.
T1 construct: Various β-lactamases can be isolated from penicillin- or cephalosporin-resistant bacterial strains such as; endogenous in cells; host or cells: Citrobacter freundii 1203 (enzyme purified from the crude cell extract, after ampicillin induction when necessary)
T1 sequence (P05193 21-381): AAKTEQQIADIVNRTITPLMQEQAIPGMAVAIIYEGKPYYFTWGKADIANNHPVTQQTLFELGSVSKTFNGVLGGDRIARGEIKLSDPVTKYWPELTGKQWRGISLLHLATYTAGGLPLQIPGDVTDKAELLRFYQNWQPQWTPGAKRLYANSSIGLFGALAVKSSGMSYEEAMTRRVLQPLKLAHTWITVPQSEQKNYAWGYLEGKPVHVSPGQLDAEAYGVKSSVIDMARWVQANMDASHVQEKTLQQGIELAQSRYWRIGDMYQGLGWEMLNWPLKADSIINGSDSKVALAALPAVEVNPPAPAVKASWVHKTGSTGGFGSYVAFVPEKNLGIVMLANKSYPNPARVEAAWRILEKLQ
Protocol: A. Isolation of the β-lactamases
Various β-lactamases can be isolated from penicillin- or cephalosporin-resistant bacterial strains such as Klebsiella pneumoniae NCTC 418, Proteus vulgaris 1028, Bacillus licheniformis 749/C, Escherichia coli SN01 and Citrobacter freundii 1203. For this purpose, the corresponding strains are cultivated in Tryptic Soy Broth (Difco) and harvested by centrifugation in the last logarithmic growth phase (when necessary 50-100 mg/l of ampicillin are added to the medium towards the end of the log-phase in order to induce the β-lactamase). The thus-obtained bacterial mass is treated with 20 mM Tris-HCl buffer (pH 7.0); the cells are broken open with a French press while cooling. The mixture is centrifuged (20,000 r/min.) for 20-30 minutes and a clear crude extract is obtained.
B. Determination of the β-lactamase activity
The determination of the activity of the isolated β-lactamases can be carried out according to the method of O'Callaghan, C. H. et al. [Antimicr. Ag. Chemother., 1, 283-288 (1972)] using the chromogenic cephalosporin nitrocefin (87/312 from Glaxo). The requisite test batch contains per ml of water: 50 mM phosphate buffer (pH 7.0), 0.1 mM nitrocefin and sufficient enzyme (β-lactamase) to achieve a ΔA/min. of about 0.1. The cleavage of the substrate, which is accompanied by a change in colour, is effected at 37° C. and is followed quantitatively at 482 nm using a spectral photometer.
C. Determination of the β-lactamase-inhibiting activity of the compounds of general formula I
The above-described cleavage of the chromogenic substrate by β-lactamases (test B.) can be inhibited by the addition of compounds of general formula I (inhibitors). […] As a measurement for the affinity of the particular tested inhibitor to the β-lactamase, which is a measurement of the strength of the inhibitor, there serves that concentration which inhibits by 50% (IC 50 in nM) the cleavage of the substrate (nitrocefin) effected under the above test conditions (test B) in the absence of an inhibitor. […] The determination of the IC50 was effected by means of a graph.
(Test organism: Citrobacter freundii)
`O=C(NC1CCC1)N1CC[C@@H]2[C@H]1C(=O)N2S(=O)(=O)O` [17(h), (1S,5R)-2-Cyclobutylcarbamoyl)-7-oxo-2,6-diazabicyclo[3.2.0]heptane-6-sulphonic acid sodium salt] gave an IC50 of 145 nM. `O=C(NCc1cccs1)N1CC[C@@H]2[C@H]1C(=O)N2S(=O)(=O)O` [17(p), (1S,5R)-2-(2-Thien-2-ylmethylcarbamoyl)-7-oxo-2,6-diazabicyclo[3.2.0]heptane-6-sulphonic acid sodium salt] showed an IC50 of 383 nM. `O=C1SCC[C@@H]1NC(=O)N1CC[C@@H]2[C@H]1C(=O)N2S(=O)(=O)O` [17(t), (1S,5R)-7-Oxo-2-(S)-(2-oxo-3-tetrahydrothienyl-carbamoyl)-2,6-diazabicyclo[3.2.0]heptane-6-sulphonic acid sodium salt] gave an IC50 of 53 nM. In the case of `O=C(NC1CC1)N1CC[C@@H]2[C@H]1C(=O)N2S(=O)(=O)O` [17(i), (1S,5R)-2-Cyclopropylcarbamoyl)-7-oxo-2,6-diazabicyclo[3.2.0]heptane-6-sulphonic acid sodium salt], the IC50 is reported as 245 nM. For `O=C(NCC(=O)N1CC[C@@H]2[C@H]1C(=O)N2S(=O)(=O)O)OCc1ccccc1` [4(g), Benzyl[[[(1S,5R)-7-oxo-6-sulpho-2,6-diazabicyclo[3.2.0]-hept-2-yl]carbonyl]methyl]carbamate], the IC50 was 390 nM.

Same assay, conditions: IC 50 nM, isolated β-lactamase of Citrobacter freundii; substrate nitrocefin 0.1 mM; 15 minutes pre-incubation with inhibitor; 37° C., pH 7.0
In the case of `O=C(OCc1ccccc1)N1C[C@@H](Cl)[C@@H]2[C@H]1C(=O)N2S(=O)(=O)O` [Example 15, (1S,4R,5S)-2-Benzyloxycarbonyl-4-chloro-7-oxo-2,6-diazabicyclo[3.2.0]heptane-6-sulphonic acid sodium salt], the IC50 is reported as 630 nM. In the case of `COC(=O)/C=C1\CN(C(=O)OCc2ccccc2)[C@@H]2C(=O)N(S(=O)(=O)O)[C@H]12` [14(a), (1S,5R)-(E)-4-Methoxycarbonylmethylene-7-oxo-6-sulpho-2,6-diazabicyclo[3.2.0]heptane-2-carboxylic acid benzyl ester sodium salt], the IC50 is reported as 32 nM. In the case of `NC(=O)/C=C1\CN(C(=O)OCc2ccccc2)[C@@H]2C(=O)N(S(=O)(=O)O)[C@H]12` [14(b), (1S,5R)(E)-2-Benzyloxycarbonyl-4-carbamoylmethylene-7-oxo-2,6-diazabicyclo[3.2.0]heptane-6-sulphonic acid sodium salt], the IC50 is reported as 65 nM. For `O=C(Nc1cccc(O)c1)N1CC[C@@H]2[C@H]1C(=O)N2S(=O)(=O)O` [17(s), (1S,5R)-2-(3-Hydroxyphenylcarbamoyl)-7-oxo-2,6-diazabicyclo[3.2.0]heptane-6-sulphonic acid sodium salt], the IC50 was 38 nM. `NC(=O)/C=C1/CN(C(=O)OCc2ccccc2)[C@@H]2C(=O)N(S(=O)(=O)O)[C@H]12` [14(c), (1S,5R)(Z)-2-Benzyloxycarbonyl-4-carbamoylmethylene-7-oxo-2,6-diazabicyclo[3.2.0]heptane-6-sulphonic acid sodium salt] was tested, and the IC50 was 826 nM. `O=C(OCc1ccccc1)N1C[C@@H](Cl)[C@@H]2[C@H]1C(=O)N2S(=O)(=O)O` [16(b), (1S,4R,5S)-2-Benzyloxycarbonyl-4-chloro-7-oxo-2,6-diazabicyclo[3.2.0]heptane-6-sulphonic acid sodium salt] gave an IC50 of 334 nM. With `O=C(CNc1ccc2c(C(F)(F)F)cc(=O)oc2c1)N1CC[C@@H]2[C@H]1C(=O)N2S(=O)(=O)O` [5(n), (1S,5R)-2-[N-[2-Oxo-4-(trifluoromethyl)-2H-1-benzopyran-7-yl]glycyl]-7-oxo-2,6-diazabicyclo[3.2.0]heptane-6-sulphonic acid sodium salt] the IC50 was 67 nM. In the case of `Cn1nnnc1S[C@@H]1CN(C(=O)OCc2ccccc2)[C@@H]2C(=O)N(S(=O)(=O)O)[C@@H]21` [Example 22, (1S,4R,5S)-2-Benzyloxycarbonyl-4-(1-methyl-1H-tetrazol-5-yl-thio)-7-oxo-2,6-diazabicyclo[3.2.0]heptane-6-sulphonic acid sodium salt], the IC50 is reported as 220 nM. Work on `Nc1nnc(SCC(=O)Nc2nnc(SCC(=O)N3CC[C@@H]4[C@H]3C(=O)N4S(=O)(=O)O)s2)s1` [6(w), (1S,5R)-2-[5-(5-Amino-1,3,4-thiadiazol-2-ylsulfanylacetylamino)-1,3,4-thiadiazol-2-ylsulfanylacetyl]-7-oxo-2,6-diazabicyclo[3.2.0]heptane-6-sulfonic acid sodium salt] yielded an IC50 of 22 nM. `O=C(/C=C/c1ccc(O)cc1)N1CC[C@@H]2[C@H]1C(=O)N2S(=O)(=O)O` [6(t), (1S,5R)-(E)-2-[3-(4-Hydroxy-phenyl)acryloyl]-7-oxo-2,6-diazabicyclo[3.2.0]heptane-6-sulphonic acid sodium salt] showed an IC50 of 12 nM. Compound `O=C(Nc1ccc(O)cc1)N1CC[C@@H]2[C@H]1C(=O)N2S(=O)(=O)O` [17(w), (1S,5R)-2-(4-Hydroxyphenylcarbamoyl)-7-oxo-2,6-diazabicyclo[3.2.0]heptane-6-sulphonic acid sodium salt] has an IC50 of 109 nM. `O=C(OCc1ccccc1)N1C[C@H](F)[C@@H]2[C@H]1C(=O)N2S(=O)(=O)O` [16(a), (1S,4S,5S)-4-Fluoro-7-oxo-6-sulpho-2,6-diazabicyclo[3.2.0]heptane-2-carboxylic acid benzyl ester sodium salt] was tested, and the IC50 was 14 nM.

Same assay, conditions: isolated β-lactamase of Citrobacter freundii; substrate nitrocefin 0.1 mM; 15 minutes pre-incubation with inhibitor; 37° C., pH 7.0; read-out: IC 50 nM
In the case of `O=C(c1cc2ccccc2[nH]1)N1CC[C@@H]2[C@H]1C(=O)N2S(=O)(=O)O` (racemic) [6(j)], the IC50 is reported as 280 nM. Work on `CC(C)(C)OC(=O)N1CC[C@@H]2[C@H]1C(=O)N2S(=O)(=O)O` [1(b), sodium salt] yielded an IC50 of 225 nM.

Same assay, conditions: read-out: IC 50 nM; isolated β-lactamase of Citrobacter freundii; substrate nitrocefin 0.1 mM; 15 minutes pre-incubation with inhibitor; 37° C., pH 7.0
Compound `O=C1[C@H](NC(=O)N2CC[C@@H]3[C@H]2C(=O)N3S(=O)(=O)O)CCN1O` [17(r), sodium salt] has an IC50 of 490 nM.

Each compound was assayed on Citrobacter freundii (assay: MIC in vitro of a 1:4 combination of ceftriaxone with a compound of formula I (test D)). Details: 1:4 combination of ceftriaxone with the compound.
Assay type: cell-based
Protocol: D. Determination of the β-lactamase-inhibiting activity by combination of a compound of general formula I with ceftriaxone
The minimum inhibitory concentration in vitro (MIC in μg/ml) of a 1:4 combination of ceftriaxone with a compound of formula I against Citrobacter freundii is measured and compiled in Table 2 hereinafter.
For `CC(=O)N/C(=C\c1ccccc1)C(=O)N1CC[C@@H]2[C@H]1C(=O)N2S(=O)(=O)[O-].[Na+]` [5(f), (1S,5R)-2-[(Z)-3-α-Acetamidocinnamoyl]-7-oxo-2,6-diazabicyclo[3.2.0]heptane-6-sulphonic acid sodium salt], the “MIC” value was 16 µg/mL. In the case of `CCN(CC)CC.O=C([C@@H](O)c1ccccc1)N1CC[C@@H]2[C@H]1C(=O)N2S(=O)(=O)O` [6(l), (1S,5R)-2-[(S)-α-Hydroxyphenylacetyl]-7-oxo-2,6-diazabicyclo[3.2.0]heptane-6-sulphonic triethylamine salt (1:1)], the “MIC” value is reported as 8 µg/mL. For `CSCC[C@@H](NC(=O)c1ccccc1)C(=O)N1CC[C@@H]2[C@H]1C(=O)N2S(=O)(=O)O.[Na]` [5(h), (1S,5R)-2-[(R,S)-2-Benzamido-4-(methylthio)butyryl]-7-oxo-2,6-diazabicyclo[3.2.0]heptane-6-sulphonic acid sodium salt], the “MIC” value was 4 µg/mL. In the case of “(1S,5R)-(E)-3-Phenyl-acryloyl-2,6-diazabicyclo[3.2.0]heptane-6-sulphonic acid sodium salt [11(a)]”, the “MIC” value is reported as 8 µg/mL. `O=C([C@H](O)c1ccccc1)N1CC[C@@H]2[C@H]1C(=O)N2S(=O)(=O)[O-].[Na+]` [6(k), (1S,5R)-2-[(R)-α-Hydroxyphenylacetyl]-7-oxo-2,6-diazabicyclo[3.4.0]heptane-6-sulphonic acid sodium salt (1:1)] was tested, and the “MIC” value was 8 µg/mL. With `COC(=O)NN1CC[C@@H]2[C@H]1C(=O)N2S(=O)(=O)[O-].[Na+]` [Example 18, Methyl (1S,5R)-7-oxo-6-sulpho-2,6-diazabicyclo[3.2.0]heptane-2-carbamate sodium salt] the “MIC” value was 1 µg/mL.

Same assay, conditions: ceftriaxone alone (control), read-out: MIC
Work on `CO/N=C(\C(=O)N[C@@H]1C(=O)N2C(C(=O)O)=C(CSc3nc(=O)c(=O)[nH]n3C)CS[C@H]12)c1csc(N)n1` [Ceftriaxone, ceftriaxone, reference compound] yielded an MIC of 128 µg/mL.

Reference: US6566355B1 (Hoffmann-La Roche Inc., priority 1991, dated 2003)
